In this assay the test system is HCV 1a genotype. The class given is cell-based, hepatitis C virus. The settings on record: Genotype-1a replicon, Luciferase assay, 72 hours. A general note: A replicon is a self-replicating genome or part of one, used to study replication in cells.

Molecules are shown by their SMILES. pEC50: −log10 of the molar value. *1 amine or outer side, *2 acyl side, *3 side chain or, on linkers, in order; H or OH if unused. Where a SMILES comes first, the peptide text is derived from it. [ ]: non-standard residue; d: D form. X1 = C/C=C/C[C@@H](C)C1ON([*:1])[C@@H]1C(=O)[*:2]; X2 = CNCC(C)(C)[C@@H](C(=O)[*:2])N(C)[*:1]; NMeL = CN[C@@H](CC(C)C)C(=O)O; NMeV = CN[C@H](C(=O)O)C(C)C; dNMeA = CN[C@H](C)C(=O)O; Abu = CC[C@H](N)C(=O)O

Consider `C/C=C/C[C@@H](C)C1ON2C(=O)[C@H](C(C)C)N(C)C(=O)[C@H](CC(C)C)N(C)C(=O)[C@H](CC(C)C)N(C)C(=O)[C@@H](C)NC(=O)[C@H](C)NC(=O)[C@H](CC(C)C)N(C)C(=O)[C@H](C(C)C)NC(=O)[C@H](C(C)(C)CNC)N(C)C(=O)[C@@H](C)N(C)C(=O)[C@H](CC)NC(=O)[C@H]12` (stereo partly shown) [Example 1] (cyclo(A[dA][NMeL][NMeL][NMeV][X1][Abu][dNMeA][X2]V[NMeL])), for which the pEC50 (commonly the negative decadic logarithm of the EC50, by convention in mol/L) was 7.00 to 8.00.

Source of the values: US9669095B2, “Cyclosporin analogues for preventing or treating hepatitis C infection” (Enanta Pharmaceuticals, Inc., priority 2014, dated 2017).
